Experiment: Ingredient metering: LC-UV concentration of active ingredients on storage
Format: physicochemical
Settings: for Concentration of ingredient in inventive formula, T1M 45° C / Concentration of ingredient in inventive formula, T1M TA: in Inventive Ex. 1, 1 month; for Concentration of ingredient in inventive formula, T1M TA / Concentration of ingredient in inventive formula, T2M TA: temperature ambient; for Concentration of ingredient in inventive formula, T2M 45° C / Concentration of ingredient in inventive formula, T2M TA: in Inventive Ex. 1, 2 months; for Concentration of ingredient in inventive formula, T0 M: in Inventive Ex. 1, month 0
Source text: The levels of Ascorbic Acid, Ferulic Acid, Salicylic Acid, and Silybum marianum Extract (Active Silybin) were metered.

| Structure (SMILES) | Concentration of ingredient in inventive formula, T1M 45° C [%] | Concentration of ingredient in inventive formula, T1M TA [%] | Concentration of ingredient in inventive formula, T2M 45° C [%] | Concentration of ingredient in inventive formula, T2M TA [%] | Concentration of ingredient in inventive formula, T0 M [%] |
| --- | --- | --- | --- | --- | --- |
| COc1cc(/C=C/C(=O)O)ccc1O [Ferulic Acid] | 0.43 | 0.48 | 0.39 | 0.50 | 0.46 |
| O=C(O)c1ccccc1O [Salicylic Acid] | 0.49 | 0.50 | 0.47 | 0.49 |  |
| O=C1O[C@H]([C@@H](O)CO)C(O)=C1O [Ascorbic Acid] | 14.72 | 15.04 | 14.00 | 15.60 | 15.2 |
